Test results from patent publication US6387881B1, “Inhibitors and substrates of thrombin” (priority 1992, dated 2002).
pIC50, pKi: −log10 of the molar value. Values joined by “and” are separate entries in the source; they are usually repeats but may differ in a detail not shown here. Identical values can stand only once. Like-named read-outs stand apart in the source and are kept apart here.

Key:
[1] = tested on: 111indium-labelled platelets; experiment: Deposition of 111indium-labelled platelets after intravenous dose; assay type: in vivo, New Zealand white rabbits
Description: M. Hero, K. D. Butler, C. […] Peripheral blood pressure was monitored by a pressure sensor in the carotid artery.

[2] = Peripheral blood pressure after intravenous dose; assay type: in vivo, New Zealand white rabbits
Description: […] R. May, C. M. Hero, K. D. Butler, C. P. Page, JOURNAL OF PHARMACOLOGICAL METHODS, 24, pp 1-35, 1990. Peripheral blood pressure was monitored by a pressure sensor in the carotid artery.

[3] = IC50 with and without incubation (enzyme not given); assay type: biochemical
Plasmin = Plasmin (Homo sapiens, UniProt P00747); experiment: IC50 against plasmin; assay type: biochemical
Sequence of Plasmin (P00747 97-580 limits assumed, species assumed): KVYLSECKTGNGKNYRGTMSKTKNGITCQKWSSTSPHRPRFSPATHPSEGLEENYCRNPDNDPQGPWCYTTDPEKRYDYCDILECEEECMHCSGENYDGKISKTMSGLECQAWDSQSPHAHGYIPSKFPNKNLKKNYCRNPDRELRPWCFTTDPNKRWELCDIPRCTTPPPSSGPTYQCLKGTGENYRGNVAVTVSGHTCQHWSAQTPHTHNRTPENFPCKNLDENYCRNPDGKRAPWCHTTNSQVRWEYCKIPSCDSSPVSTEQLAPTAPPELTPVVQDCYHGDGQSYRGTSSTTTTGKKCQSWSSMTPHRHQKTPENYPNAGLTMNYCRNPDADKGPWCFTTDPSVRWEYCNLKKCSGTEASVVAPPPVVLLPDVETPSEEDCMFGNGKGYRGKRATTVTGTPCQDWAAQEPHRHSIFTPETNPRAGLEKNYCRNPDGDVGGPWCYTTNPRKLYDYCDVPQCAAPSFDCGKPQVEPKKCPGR
Sequence of Plasmin (P00747 581-810 limits assumed, species assumed): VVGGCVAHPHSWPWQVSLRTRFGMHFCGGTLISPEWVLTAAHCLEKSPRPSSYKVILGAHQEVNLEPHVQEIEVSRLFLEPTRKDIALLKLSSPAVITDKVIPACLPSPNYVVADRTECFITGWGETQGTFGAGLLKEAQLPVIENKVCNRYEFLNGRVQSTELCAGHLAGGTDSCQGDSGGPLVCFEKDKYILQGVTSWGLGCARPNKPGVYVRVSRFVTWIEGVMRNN

Xa = target: T1, Xa (Homo sapiens, UniProt P00742); experiment: IC50 against Xa; assay type: biochemical
T1 construct: Plasmin; Xa; Urokinase
T1 sequence (P00742 41-179 limits assumed): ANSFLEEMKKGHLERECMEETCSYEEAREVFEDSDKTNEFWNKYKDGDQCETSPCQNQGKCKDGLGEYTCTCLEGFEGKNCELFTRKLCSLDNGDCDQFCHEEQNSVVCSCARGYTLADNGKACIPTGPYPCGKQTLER
T1 sequence (P00742 235-488 limits assumed): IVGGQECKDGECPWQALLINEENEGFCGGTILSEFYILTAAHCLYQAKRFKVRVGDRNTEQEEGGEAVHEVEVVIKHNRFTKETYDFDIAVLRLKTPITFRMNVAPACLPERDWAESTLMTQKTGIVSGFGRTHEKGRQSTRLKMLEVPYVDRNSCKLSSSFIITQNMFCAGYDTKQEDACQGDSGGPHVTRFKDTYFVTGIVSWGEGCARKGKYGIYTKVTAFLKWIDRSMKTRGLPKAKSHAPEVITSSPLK

Urokinase = Urokinase (Homo sapiens, UniProt P00749); experiment: IC50 against urokinase; assay type: biochemical
Kalhikrein = experiment: IC50 against kallikrein; assay type: biochemical
human α-thrombin = human α-thrombin (Homo sapiens, UniProt P00734); experiment: biochemical; assay type: biochemical; conditions: read-out: Ki
Protocol: The inhibition of human α-thrombin was determined by the inhibition of the enzyme catalyzed hydrolysis of three different concentrations of the chromogenic substrate S-2238.
200 μl of sample or buffer and 50 μl of S-2238 were incubated at 37° C. for 1 min and 50 μl of human α-thrombin (0.25 NIHu/ml) was added. The initial rate of inhibited and uninhibited reactions were recorded at 405 nm. The increase in optical density was plotted according to the method of Lineweaver and Burke. The Km and apparent Km were determined and Ki was calculated using the relationship: [formula]

[4] = tested on: bovine thrombin in plasma samples; experiment: Ex-vivo TT; assay type: in vivo, New Zealand white rabbits; set-up: key: thrombin (coagulation) time in seconds; conditions: 1 mg/kg i.v. bolus, rabbit
Protocol: (§1) A volume of 150 μl of citrated normal human plasma and 20 μl of buffer or sample were warmed at 37° C. for 1 min. Coagulation was started by adding 150 ul of freshly prepared bovine thrombin (5 NIHu/ml saline) and the coagulation time was recorded on a coagulometer.
(§2) A phosphate buffer, pH 7.8, containing 0.1% bovine serum albumine and 0.02% sodium azide was used. The samples were dissolved in DMSO and diluted with the buffer. When no inhibitor was used DMSO was added to the buffer to the same concentration as that used in the samples. The inhibitor concentrations were plotted against the thrombin times in a semilogarithmic graph from which the inhibitor concentration that caused a doubling (40 sec) of the thrombin time was determined.
(§3) Data was obtained as for in-vitro tests, but using plasma samples obtained at 0, 1, 10, 30 and 60 minutes after dosing of 1 mg/kg, i.v. bolus injection in a marginal ear vein in New Zealand white rabbits, which were anaesthetized from a canula in the carotid artery. [drawing 18]

plasma samples = experiment: Ex-vivo APTT; assay type: in vivo, New Zealand white rabbits; set-up: unit not given here; conditions: 1 mg/kg i.v. bolus, rabbit
Protocol: A volume of 150 μl of citrated (3.2%) normal human plasma was incubated at 37° C. with sample (20 μl) or buffer (20 μl, control) for 1 min. To the solution was added reconstituted “AUTOMATED APTT” (available from Organon Teknika, 0.1 ml). Each solution was activated at 37° C. for 5 min.
After activation, calcium chloride (0.1 ml, 0.025M, prewarmed at 37° C.) was added and clot detection was timed using a “semiautomated coagulometer” (Nach, Schnicter und Gross).
as §3

[5] = target: T2, bovine thrombin in citrated normal human plasma (Bos taurus, UniProt P00735); experiment: Plasma thrombin time (TT), in vitro; assay type: biochemical; conditions: inhibitor concentration that caused a doubling of the thrombin time
T2 construct: freshly prepared bovine thrombin (5 NIHu/ml saline)
Protocol: as §1, §2

[6] = no incubation, read-out: IC50 No Incubations
[7] = single value given, incubation not given, read-out: Plasmin no inc/inc
[8] = single value given, incubation not given, read-out: Xa no inc/inc
[9] = single value given, incubation not given, read-out: Urokinase no inc/inc
[10] = single value given, incubation not given, read-out: Kalhikrein no inc/inc
[11] = with incubation, read-out: IC50 Inc.

Row | Compound | PLATELET ACCUMULATION (% OF NORMAL) LEG ([1]; 4 mg/kg iv. dose) | PLATELET ACCUMULATION (% OF NORMAL) LUNG ([1]; 4 mg/kg iv. dose) | BLOOD PRESSURE Δ% of NORM ([2]; 4 mg/kg iv. dose) | pIC50 [3, 6] | pIC50 (Plasmin; [7]) | pIC50 (Xa; [8]) | pIC50 (Urokinase; [9]) | pIC50 (Kalhikrein; [10]) | pIC50 [3, 11] | BLOOD PRESSURE Δ% of NORM ([2]; 1 mg/kg i.v. dose) | further results
1 | CCC(C)CC(NC(=O)[C@@H]1CCCN1C(=O)[C@@H](Cc1ccccc1)NC(=O)OCc1ccccc1)B1OC2CC3CC(C3(C)C)C2(C)O1 (stereo partly drawn) [Compound 22, Z-D-Phe-Pro-BoroMbg-OPin] | 11%, TRANSIENT % OF NORMAL | NONE | 0 Δ% of NORM | 8.15 | 4.94 | 5.41 | 5.04 | 4.89 |  |  | 
2 | CCCCCC(NC(=O)[C@@H]1CCCN1C(=O)[C@H](N)C(c1ccccc1)c1ccccc1)P(=O)(Oc1ccccc1)Oc1ccccc1 (stereo partly drawn) [Compound 23, D-Dpa-Pro-Pgl^P(OPh)2] |  |  |  | 6.73 |  |  |  |  | 9.03 |  | pKi (human α-thrombin; human α-thrombin, S-2238, 37° C.): 6.32
3 | CC1(C)C2CC3OB(C(CCCSC(=N)N)NC(=O)C4CCCN4C(=O)C(Cc4ccccc4)NC(=O)OCc4ccccc4)OC3(C)C1C2 [Compound 25, Z-D-Phe-Pro-BoroIrg-OPin] |  |  | 100% Δ% of NORM | 5.82 | 8.08 | 7.85 | 7.12 | 6.48 | 7.17 | SMALL | 
4 | COCCCC(NC(=O)[C@@H]1CCCN1C(=O)[C@H](N)Cc1ccccc1)P(=O)(Oc1ccccc1)Oc1ccccc1 (stereo partly drawn) [Compound 40, H-D-Phe-Pro-Mpg^P(OPh)2] |  |  |  | 4.78 |  |  |  |  | 7.93 |  | pKi (human α-thrombin): 7.73; pIC50 (Plasmin; no incubation (first value of cell), read-out: Plasmin no inc): < 4.68; pIC50 (Xa; no incubation (first value of cell), read-out: Xa no inc): < 4.68; pIC50 (Xa; with incubation (second value of cell), read-out: Xa inc): < 4.68; pIC50 (Urokinase; no incubation (first value of cell), read-out: Urokinase no inc): < 4.68; pIC50 (Urokinase; with incubation (second value of cell), read-out: Urokinase inc): < 4.68; pIC50 (Kalhikrein; no incubation (first value of cell), read-out: Kalhikrein no inc): < 4.68; pIC50 (Kalhikrein; with incubation (second value of cell), read-out: Kalhikrein inc): < 4.68
5 | CC1(C)OB(C(Cc2ccccc2)NC(=O)C2CCCN2C(=O)C(Cc2ccccc2)NC(=O)OCc2ccccc2)OC1(C)C [Compound 41, Z-D-Phe-Pro-BoroPhe-OPinac] | NONE | NONE | 21% Δ% of NORM | 7.89 | 4.43 | 5.10 | 5.18 | 4.78 |  |  | 
6 | COCCCC(NC(=O)C1CCCN1C(=O)C(Cc1ccccc1)NC(=O)OCc1ccccc1)B1OC2CC3CC(C3(C)C)C2(C)O1 [Compound 50, Z-D-Phe-Pro-BoroMpg-OPin] |  |  |  | 9.15 | 5.49 | 5.76 | 5.44 | 5.14 |  |  | 
7 | CC(C)(C)OC(=O)NC(Cc1ccccc1)C(=O)N1CCCC1C(=O)NC(C=O)Cc1cnc[nH]1 [Compound 53, Boc-D-Phe-Pro-His-H] | NONE | NONE | 0 Δ% of NORM |  | < 3.38 | < 3.38 | < 3.38 | < 3.38 |  | NONE | PLATELET ACCUMULATION (% OF NORMAL) LEG ([1]; 1 mg/kg i.v. dose): NONE; PLATELET ACCUMULATION (% OF NORMAL) LUNG ([1]; 1 mg/kg i.v. dose): NONE; EX-VIVO T.T. ([4]; time 0 min): 26 and 27 and 24 and 24.9; EX-VIVO T.T. ([4]; time 1 min): 86.9 and 83.5 and 80.9 and 74; EX-VIVO T.T. ([4]; time 10 min): 32 and 30 and 29.9; EX-VIVO T.T. ([4]; time 30 min): 24.4 and 25 and 25.9 and 25.4; EX-VIVO T.T. ([4]; time 60 min): 24.4 and 23.9 and 22.9; EX-VIVO A.P.T.T. (plasma samples; time 0 min): 32.9 and 24.9; EX-VIVO A.P.T.T. (plasma samples; time 1 min): 41.5 and 27.9 and 30.9; EX-VIVO A.P.T.T. (plasma samples; time 10 min): 39.9 and 29.9 and 26 and 25.9; EX-VIVO A.P.T.T. (plasma samples; time 30 min): 31.4 and 30.4 and 25.4 and 26.1; EX-VIVO A.P.T.T. (plasma samples; time 60 min): 28.9 and 27.5 and 25.9
8 | N=C(N)Nc1ccc(CC(NC(=O)[C@@H]2CCCN2C(=O)[C@H](N)Cc2ccccc2)C(=O)CCC(=O)N2CCCCC2)cc1 (stereo partly drawn) [D-Phe-Pro-Gpa-k--Gly-Pip, D-Phe-Pro-Gpa--k--Gly-Pip] |  |  |  |  |  |  |  |  |  |  | pKi (human α-thrombin): 5.89; TT [5]: 4.9 µM
9 | Bzl-Pros-Pro-BoroIrg-Opin [Compound 44] |  |  |  | 5.89 | 6.82 | 6.29 | 6.92 | 5.97 |  |  | 
10 | Z-D-Phe-Pro-BoroMbg-OPin [Compound 59] |  |  |  |  |  |  |  |  |  | NONE | PLATELET ACCUMULATION (% OF NORMAL) LEG ([1]; 1 mg/kg i.v. dose): NONE; PLATELET ACCUMULATION (% OF NORMAL) LUNG ([1]; 1 mg/kg i.v. dose): NONE; EX-VIVO T.T. ([4]; time 0 min): 28.9 and 22.5 and 22.4 and 23.5; EX-VIVO T.T. ([4]; time 1 min): 111 and 106 and 171.5 and 168.5; EX-VIVO T.T. ([4]; time 10 min): 35.9 and 34 and 37.9 and 38.4; EX-VIVO T.T. ([4]; time 30 min): 29 and 30 and 32 and 31; EX-VIVO T.T. ([4]; time 60 min): 28.4 and 28.5 and 27.9 and 28; EX-VIVO A.P.T.T. (plasma samples; time 0 min): 42 and 59.5 and 43.9 and 58; EX-VIVO A.P.T.T. (plasma samples; time 1 min): 111.4 and 111 and 102.9 and 126; EX-VIVO A.P.T.T. (plasma samples; time 10 min): 48.9 and 53 and 60.5 and 67; EX-VIVO A.P.T.T. (plasma samples; time 30 min): 34.9 and 49 and 59 and 53.9; EX-VIVO A.P.T.T. (plasma samples; time 60 min): 40.4 and 48.4 and 65.5 and 62
